Reference: paper PMC12136031 (Science Advances, 2025)
Read-outs that look alike come from different tables or passages of the source.

Assays:
[1] = target: T1, EDNRA (Homo sapiens, UniProt P25101); test: Safety47 Calcium Flux EDNRA; assay type: cell-based; settings: for Emax: read-out: Max Response; for EC50: read-out: RC50 (EC50); for IC50: read-out: RC50 (IC50)
T1 construct: purchased Eurofins Panlab Safety47 Safety Scan
T1 sequence (P25101 21-427): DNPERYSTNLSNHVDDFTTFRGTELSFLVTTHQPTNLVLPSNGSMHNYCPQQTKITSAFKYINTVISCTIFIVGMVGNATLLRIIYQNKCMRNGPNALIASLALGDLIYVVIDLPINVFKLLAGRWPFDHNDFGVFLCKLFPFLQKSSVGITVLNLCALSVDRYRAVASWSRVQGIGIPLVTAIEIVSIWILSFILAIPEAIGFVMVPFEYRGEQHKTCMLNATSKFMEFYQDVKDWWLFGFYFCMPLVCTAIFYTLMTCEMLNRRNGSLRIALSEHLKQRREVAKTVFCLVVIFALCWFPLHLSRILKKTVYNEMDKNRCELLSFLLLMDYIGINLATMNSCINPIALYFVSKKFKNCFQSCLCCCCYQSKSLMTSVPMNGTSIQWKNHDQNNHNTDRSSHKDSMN

[2] = target: T2, HRH1 (Homo sapiens, UniProt P35367); test: Safety47 Calcium Flux HRH1; assay type: cell-based; settings: for Emax: read-out: Max Response; for EC50: read-out: RC50 (EC50); for IC50: read-out: RC50 (IC50)
T2 construct: purchased Eurofins Panlab Safety47 Safety Scan
T2 sequence (P35367 whole entry): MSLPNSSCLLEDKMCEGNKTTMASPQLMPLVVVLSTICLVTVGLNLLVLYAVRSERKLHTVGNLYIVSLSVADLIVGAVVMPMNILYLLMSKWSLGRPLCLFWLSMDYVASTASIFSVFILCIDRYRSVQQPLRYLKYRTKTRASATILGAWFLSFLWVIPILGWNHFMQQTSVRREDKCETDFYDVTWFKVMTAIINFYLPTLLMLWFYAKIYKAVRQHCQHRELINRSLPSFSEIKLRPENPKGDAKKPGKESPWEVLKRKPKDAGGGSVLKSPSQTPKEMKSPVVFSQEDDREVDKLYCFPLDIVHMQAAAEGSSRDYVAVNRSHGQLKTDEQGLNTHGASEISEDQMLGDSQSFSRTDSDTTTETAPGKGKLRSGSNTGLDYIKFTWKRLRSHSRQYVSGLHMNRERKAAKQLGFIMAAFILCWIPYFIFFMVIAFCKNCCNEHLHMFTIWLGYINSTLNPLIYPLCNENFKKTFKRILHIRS

[3] = target: T3, CHRM1 (Homo sapiens, UniProt P11229); test: Safety47 Calcium Flux CHRM1; assay type: cell-based; settings: for Emax: read-out: Max Response; for EC50: read-out: RC50 (EC50); for IC50: read-out: RC50 (IC50)
T3 construct: purchased Eurofins Panlab Safety47 Safety Scan
T3 sequence (P11229 1-460): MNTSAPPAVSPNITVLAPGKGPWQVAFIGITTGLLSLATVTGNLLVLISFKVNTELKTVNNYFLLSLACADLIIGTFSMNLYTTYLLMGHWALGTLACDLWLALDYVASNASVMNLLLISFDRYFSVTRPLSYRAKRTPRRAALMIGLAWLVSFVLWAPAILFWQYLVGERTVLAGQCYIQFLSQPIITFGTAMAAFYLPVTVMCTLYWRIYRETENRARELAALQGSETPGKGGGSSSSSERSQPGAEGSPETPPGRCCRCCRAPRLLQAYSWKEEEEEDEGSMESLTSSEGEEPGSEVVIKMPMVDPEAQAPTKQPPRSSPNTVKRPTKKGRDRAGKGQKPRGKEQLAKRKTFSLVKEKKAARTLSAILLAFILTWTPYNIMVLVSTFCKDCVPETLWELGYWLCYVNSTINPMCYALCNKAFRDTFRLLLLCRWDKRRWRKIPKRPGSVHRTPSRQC

[4] = target: DCAF7 / phosphorylated TFEB peptide (Ser138, Ser142) (Homo sapiens, UniProt P61962); test: TFEB peptide binding assay with recombinant DCAF7; settings: DCAF7 preincubated with compound
DCAF7 / phosphorylated TFEB peptide (Ser138, Ser142), sequence (P61962 whole entry): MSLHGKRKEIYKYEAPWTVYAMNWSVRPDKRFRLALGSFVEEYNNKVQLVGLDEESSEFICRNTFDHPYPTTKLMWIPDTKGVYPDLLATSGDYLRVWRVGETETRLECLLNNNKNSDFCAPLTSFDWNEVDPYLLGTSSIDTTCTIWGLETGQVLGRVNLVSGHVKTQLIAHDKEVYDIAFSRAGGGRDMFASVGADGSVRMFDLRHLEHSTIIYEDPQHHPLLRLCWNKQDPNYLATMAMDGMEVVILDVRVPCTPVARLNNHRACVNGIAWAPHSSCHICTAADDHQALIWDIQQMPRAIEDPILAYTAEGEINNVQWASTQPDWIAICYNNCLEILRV

[5] = target: T4, CNR1 (Homo sapiens, UniProt P21554); test: Safety47 cAMP CNR1; assay type: cell-based; settings: for Emax: read-out: Max Response; for EC50: read-out: RC50 (EC50); for IC50: read-out: RC50 (IC50)
T4 construct: purchased Eurofins Panlab Safety47 Safety Scan
T4 sequence (P21554 whole entry): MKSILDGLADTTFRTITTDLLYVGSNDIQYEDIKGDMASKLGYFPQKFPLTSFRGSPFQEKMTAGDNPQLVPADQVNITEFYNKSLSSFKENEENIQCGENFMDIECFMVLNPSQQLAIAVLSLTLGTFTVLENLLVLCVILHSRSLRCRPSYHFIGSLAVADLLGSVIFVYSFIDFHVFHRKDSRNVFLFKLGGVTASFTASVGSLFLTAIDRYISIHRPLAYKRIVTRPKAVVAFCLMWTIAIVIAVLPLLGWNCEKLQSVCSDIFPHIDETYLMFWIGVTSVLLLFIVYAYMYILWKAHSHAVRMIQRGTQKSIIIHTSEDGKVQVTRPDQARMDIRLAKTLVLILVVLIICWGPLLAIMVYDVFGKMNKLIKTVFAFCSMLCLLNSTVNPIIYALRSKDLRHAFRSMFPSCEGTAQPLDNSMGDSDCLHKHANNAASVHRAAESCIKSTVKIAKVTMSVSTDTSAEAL

[6] = target: T5, DRD1 (Homo sapiens, UniProt P21728); test: Safety47 cAMP DRD1; assay type: cell-based; settings: for Emax: read-out: Max Response; for EC50: read-out: RC50 (EC50); for IC50: read-out: RC50 (IC50)
T5 construct: purchased Eurofins Panlab Safety47 Safety Scan
T5 sequence (P21728 whole entry): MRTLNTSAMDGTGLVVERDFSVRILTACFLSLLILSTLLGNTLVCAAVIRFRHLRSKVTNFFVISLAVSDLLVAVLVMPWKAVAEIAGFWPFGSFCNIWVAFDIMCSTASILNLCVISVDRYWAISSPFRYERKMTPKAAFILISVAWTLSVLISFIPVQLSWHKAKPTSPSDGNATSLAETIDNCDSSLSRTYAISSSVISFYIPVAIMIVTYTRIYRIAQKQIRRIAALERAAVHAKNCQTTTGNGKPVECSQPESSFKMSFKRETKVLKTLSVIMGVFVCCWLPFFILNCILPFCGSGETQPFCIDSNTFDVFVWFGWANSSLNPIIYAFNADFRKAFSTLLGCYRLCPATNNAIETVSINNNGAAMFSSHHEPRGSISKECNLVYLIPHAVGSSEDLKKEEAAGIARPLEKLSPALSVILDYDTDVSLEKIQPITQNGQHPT

[7] = target: T6, nAChR(a4/b2) (Homo sapiens, UniProt P17787+P43681); test: Safety47 Ion Channel nAChR(a4/b2); assay type: cell-based; settings: for Emax: read-out: Max Response; for IC50: read-out: RC50 (IC50); for EC50: read-out: RC50 (EC50)
T6 construct: purchased Eurofins Panlab (Safety47 Safety Scan, contract panel)
T6 sequence (P43681 29-627 limits assumed): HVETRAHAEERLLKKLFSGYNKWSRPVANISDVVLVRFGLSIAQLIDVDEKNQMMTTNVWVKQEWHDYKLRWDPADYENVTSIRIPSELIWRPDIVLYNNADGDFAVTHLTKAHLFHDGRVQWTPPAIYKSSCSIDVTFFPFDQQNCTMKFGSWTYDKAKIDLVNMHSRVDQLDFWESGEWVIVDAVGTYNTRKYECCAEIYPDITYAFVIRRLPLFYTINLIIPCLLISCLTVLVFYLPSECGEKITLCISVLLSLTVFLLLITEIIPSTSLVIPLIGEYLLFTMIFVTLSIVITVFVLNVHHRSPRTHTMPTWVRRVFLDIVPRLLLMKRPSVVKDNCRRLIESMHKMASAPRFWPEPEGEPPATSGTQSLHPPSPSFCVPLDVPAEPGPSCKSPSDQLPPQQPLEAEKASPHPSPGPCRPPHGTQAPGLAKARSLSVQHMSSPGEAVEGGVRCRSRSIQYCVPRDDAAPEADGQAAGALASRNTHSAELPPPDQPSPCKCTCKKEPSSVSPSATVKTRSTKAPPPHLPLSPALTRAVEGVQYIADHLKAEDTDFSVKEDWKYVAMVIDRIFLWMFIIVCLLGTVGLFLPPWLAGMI
T6 sequence (P17787 26-502): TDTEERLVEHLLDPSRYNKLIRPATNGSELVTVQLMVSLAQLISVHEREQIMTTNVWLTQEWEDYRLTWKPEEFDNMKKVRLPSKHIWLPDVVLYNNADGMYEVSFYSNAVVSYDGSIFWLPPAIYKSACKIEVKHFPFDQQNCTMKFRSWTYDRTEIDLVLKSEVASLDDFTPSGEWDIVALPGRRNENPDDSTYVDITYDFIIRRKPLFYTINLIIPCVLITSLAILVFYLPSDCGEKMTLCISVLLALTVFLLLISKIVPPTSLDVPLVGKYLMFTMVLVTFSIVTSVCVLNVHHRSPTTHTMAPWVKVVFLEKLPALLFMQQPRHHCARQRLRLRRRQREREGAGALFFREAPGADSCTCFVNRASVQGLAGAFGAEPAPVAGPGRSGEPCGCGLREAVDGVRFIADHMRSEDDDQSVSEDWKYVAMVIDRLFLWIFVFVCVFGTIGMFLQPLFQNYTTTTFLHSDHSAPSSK

[8] = target: T7, GR (Homo sapiens, UniProt P04150); test: Safety47 NHR Protein Interaction GR; assay type: cell-based; settings: for Emax: read-out: Max Response; for EC50: read-out: RC50 (EC50); for IC50: read-out: RC50 (IC50)
T7 construct: purchased Eurofins Panlab (Safety47 Safety Scan, contract panel)
T7 sequence (P04150 1-777): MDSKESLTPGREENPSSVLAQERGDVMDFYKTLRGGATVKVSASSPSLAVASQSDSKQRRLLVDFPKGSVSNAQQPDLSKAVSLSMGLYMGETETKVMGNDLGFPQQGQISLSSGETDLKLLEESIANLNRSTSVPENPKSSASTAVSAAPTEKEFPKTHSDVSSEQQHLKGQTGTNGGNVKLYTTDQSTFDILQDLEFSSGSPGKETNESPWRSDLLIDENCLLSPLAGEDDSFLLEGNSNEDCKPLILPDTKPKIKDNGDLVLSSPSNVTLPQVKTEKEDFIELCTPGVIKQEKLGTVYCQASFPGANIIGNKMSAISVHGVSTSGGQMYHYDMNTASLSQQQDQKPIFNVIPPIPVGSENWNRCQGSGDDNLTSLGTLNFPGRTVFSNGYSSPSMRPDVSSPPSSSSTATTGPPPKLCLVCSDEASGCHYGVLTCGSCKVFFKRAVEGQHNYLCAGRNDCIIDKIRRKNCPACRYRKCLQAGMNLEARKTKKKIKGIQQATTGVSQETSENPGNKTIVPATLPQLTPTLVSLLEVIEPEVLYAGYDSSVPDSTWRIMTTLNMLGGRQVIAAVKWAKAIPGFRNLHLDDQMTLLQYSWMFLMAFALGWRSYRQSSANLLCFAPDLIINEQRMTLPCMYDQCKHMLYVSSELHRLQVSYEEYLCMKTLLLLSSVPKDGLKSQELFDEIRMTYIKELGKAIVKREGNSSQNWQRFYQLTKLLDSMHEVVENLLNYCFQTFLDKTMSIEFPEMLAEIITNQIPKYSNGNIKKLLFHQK

[9] = target: T8, CAV1.2 (Homo sapiens, UniProt Q13936); test: Safety47 Ion Channel CAV1.2; assay type: cell-based; settings: Blocker; for Emax: read-out: Max Response; for IC50: read-out: RC50 (IC50)
T8 construct: purchased Eurofins Panlab (Safety47 Safety Scan, contract panel)

[10] = tested on: SARS-CoV-2; test: In vivo hamster SARS-CoV-2 infection assay; design: species or system Syrian golden hamster
[11] = tested on: lysosomal pH; test: Lysosomal pH (lysosensor yellow/blue) in OC43-infected BEAS-2B cells; assay type: cell-based, human; settings: OC43 7 hours, 18 hours pretreatment, 100 nM
[12] = in vitro; settings: African green monkey
[13] = tested on: TFEB transcriptional targets; test: RNA-seq of DCAF7 inhibitor-treated BEAS-2B cells; assay type: cell-based, human; settings: 3 μM, 18 hours

## Cl.Fc1cc(Nc2nc(-c3ccncc3)nc3ncccc23)cc2cc[nH]c12 [BC18813, N-(7-fluoro-1H-indol-5-yl)-2-pyridin-4-ylpyrido[2,3-d]pyrimidin-4-amine hydrochloride]
[1]; Agonist
  Emax: 5.5%
  EC50: > 10 µM
[1]; Antagonist
  Emax: 2.32%
  IC50: > 10 µM
[2]; Agonist
  Emax: 1.49%
  EC50: > 10 µM
[2]; Antagonist
  Emax: 6.52%
  IC50: > 10 µM
[3]; Agonist
  Emax: 0%
  EC50: > 10 µM
[3]; Antagonist
  Emax: 15.3%
  IC50: > 10 µM
[4]
  In vitro peptide binding: reduced
[5]; Agonist
  Curve Bottom: 0
  Curve Top: 100
  Hill: 1.07
  Emax: 61%
  EC50: 6.11 µM
[5]; Antagonist
  Emax: 0%
  IC50: > 10 µM
[6]; Agonist
  Emax: 0%
  EC50: > 10 µM
[6]; Antagonist
  Curve Bottom: 0
  Curve Top: 100
  Hill: 1.19
  Emax: 50.1%
  IC50: 9.45 µM
[7]; Blocker
  Emax: 0%
  IC50: > 10 µM
[7]; Opener
  Emax: 0%
  EC50: > 10 µM
[8]; Agonist
  Emax: 4.56%
  EC50: > 10 µM
[8]; Antagonist
  Emax: 7.56%
  IC50: > 10 µM
[9]
  Emax: 0%
  IC50: > 10 µM

## Cl.c1ccc2c(Nc3ccc4[nH]ccc4c3)nc(-c3ccncc3)nc2c1 [BC18630, N-1H-indol-5-yl-2-pyridin-4-ylquinazolin-4-amine hydrochloride]
[10]; 4 dpi
  NP-positive epithelial staining (IHC of lung slices): notably reduced
[10]; H&E histology
  Observed levels of lung injury: mitigated
[10]; higher dose (50 mg/kg oral BID), 4 and 6 dpi
  Lung viral load reduction: > 90%
[10]; oral BID 20 and 50 mg/kg, all time points (2, 4, 6 dpi)
  Lung viral titer (PFU): dose-dependently reduced
[1]; Agonist
  Emax: 0%
  EC50: > 10 µM
[1]; Antagonist
  Emax: 3.72%
  IC50: > 10 µM
[2]; Agonist
  Emax: 0%
  EC50: > 10 µM
[2]; Antagonist
  Emax: 0%
  IC50: > 10 µM
[3]; Agonist
  Emax: 0%
  EC50: > 10 µM
[3]; Antagonist
  Emax: 7.76%
  IC50: > 10 µM
[11]
  Virally induced lysosomal alkalization (lysosomal pH): inhibited this virally induced alkalization
[4]
  In vitro peptide binding: reduced
[5]; Agonist
  Emax: 0.8%
  EC50: > 10 µM
[5]; Antagonist
  Emax: 26.9%
  IC50: > 10 µM
[12]
  CC50: > 10 µM
[13]
  Transcripts previously identified as TFEB transcriptional targets: notable increase
[6]; Agonist
  Emax: 0%
  EC50: > 10 µM
[6]; Antagonist
  Curve Bottom: 0
  Curve Top: 100
  Hill: 1.45
  Emax: 55.1%
  IC50: 8.45 µM
[7]; Blocker
  Emax: 12.4%
  IC50: > 10 µM
[7]; Opener
  Emax: 0%
  EC50: > 10 µM
[8]; Agonist
  Emax: 0%
  EC50: > 10 µM
[8]; Antagonist
  Emax: 0%
  IC50: > 10 µM
[9]
  Emax: 0%
  IC50: > 10 µM
